Data taken from paper PMC6116705, “Design, synthesis, in vitro antiproliferative activity and apoptosis-inducing studies of 1-(3′,4′,5′-trimethoxyphenyl)-3-(2′-alkoxycarbonylindolyl)-2-propen-1-one derivatives obtained by a molecular hybridisation approach” (Journal of Enzyme Inhibition and Medicinal Chemistry, 2018).
“Also recorded” adds a separate entry of the source.

Tests used:
[1] = test system: human peripheral blood mononuclear cells (PBMC); experiment: Cytotoxicity on normal PBMC (quiescent or PHA-activated); assay type: cell-based; settings: up to 10 μM, 24 h
Protocol: U-937 (human myeloid leukaemia) cells from DSMZ (German Collection of Microorganisms and Cell Cultures, Braunschweig, Germany) and U-937 cells overexpressing human Bcl-2 protein (designated U-937/Bcl-2, donated by Dr Jacqueline Bréard, INSERM U749, Faculté de Pharmacie Paris-Sud., Châtenay-Malabry, France) were cultured in RPMI-1640 medium containing 10% (v/v) heat-inactivated foetal bovine serum, 100 μg/mL streptomycin and 100 U/mL penicillin, incubated at 37 °C in a humidified atmosphere containing 5% CO2 as described. The functioning of U-937/Bcl-2 cells was tested using the cytotoxic agent 1-β-D-arabino-furanosylcytosine as previously described. Human peripheral blood mononuclear cells (PBMC) were isolated from heparin-anticoagulated blood of healthy volunteers by centrifugation with Ficoll-Paque Plus (GE Healthcare Bio-Sciences AB, Uppsala, Sweden). PBMC were also stimulated with phytohemagglutinin (2 μg/mL) for 48 h before the experimental treatment. The trypan blue dye exclusion method was used for counting the living/dead cells by a hematocytometer with 95% viability in all experiments. The cytotoxicity of compounds was evaluated by the colorimetric 3-(4,5-dimethyl-2-thiazolyl-)-2,5-diphenyl-2H-tetrazolium bromide (MTT) assay as previously described. […] After the addition of MTT (0.5 mg/mL), cells were incubated at 37 °C for 4 h. Sodium dodecyl sulphate (10% w/v) in 0.05 M HCl was added to the wells and then incubated at room temperature overnight in the dark. Absorbance was measured at 570 nm. […] Values are mean ± SE from at least three independent experiments, each performed in triplicate. Compounds were dissolved in DMSO and kept in the dark at 25 °C.

[2] = test system: tubulin (colchicine site); experiment: Inhibition of [3H]colchicine binding to tubulin; parameters: species or system bovine; settings: tubulin 1 µM, [3H]colchicine 5 µM, compound 5 µM
Protocol: (§1) To evaluate the effect of the compounds on tubulin assembly in vitro[40], varying concentrations of compounds were preincubated with 10 μM bovine brain tubulin in 0.8M monosodium glutamate (pH adjusted to 6.6 with HCl in a 2.0M stock solution) at 30 °C and then cooled to 0 °C. After addition of 0.4 mM GTP, the mixtures were transferred to 0 °C cuvettes in a recording spectrophotometer and warmed to 30 °C. Tubulin assembly was followed turbidimetrically at 350 nm. […] The capacity of the test compounds to inhibit colchicine binding to tubulin was measured as described. The reaction mixtures contained 1 μM tubulin, 5 μM [^3H]colchicine and 5 μM test compound.

bovine brain tubulin = experiment: Inhibition of tubulin polymerisation (turbidimetric tubulin assembly); assay type: biochemical; settings: tubulin 10 µM, 20 min at 30 °C; read-out: Tubulin assembly IC50±SD
Protocol: as §1

U-937 cells = experiment: Cell cycle phase distribution and apoptosis, flow cytometry (propidium iodide) and fluorescence microscopy, U-937; assay type: cell-based, human
Protocol: (§2) Fluorescent microscopy and flow cytometric analysis of propidium iodide-stained cells were performed as described. Briefly, cells were harvested and fixed in 3% paraformaldehyde and incubated at room temperature for 10 min. The fixative was removed, and the cells were washed with PBS, resuspended in 30–50 μL of PBS containing 20 μg/mL bis-benzimide trihydrochloride (Hoechst 33258) and incubated at room temperature for 15 min. Stained nuclei were visualized using a Zeiss fluorescence microscope.
(§3) Flow cytometric analysis was carried out using a BD FACSVerse™ cytometer (BD Biosciences, San Jose, CA, USA).

U-937/Bcl-2 cells = experiment: Cell cycle phase distribution and apoptosis, flow cytometry (propidium iodide) and fluorescence microscopy, U-937/Bcl-2; assay type: cell-based, human
Protocol: as §2, §3

[3] = test system: human promyelocytic leukemia (HL-60) cells; experiment: Antiproliferative assay, cell counting (Coulter Counter), HL-60; assay type: cell-based; settings: Homo sapiens; HL-60, 72–96 h; read-out: IC50, inhibition of proliferation
Protocol: Human cervix carcinoma (HeLa), human colon carcinoma (HT29), human breast carcinoma (MCF-7) and human lymphoma (HL-60) cells (3–5 × 10^4 cells) and a serial (five-fold) dilution of the test compounds were added to a 96-well microtiter plate. The cells were incubated for 72–96 h (depending on the tumor cell line) at 37 °C in a humidified 5% CO2 atmosphere. At the end of the incubation period, the cells were counted in a Coulter Counter (Coulter Electronics Ltd, Harpenden Herts, UK). […] The IC50 values represent the average (±standard deviation) of at least two to four independent experiments.

## CCOC(=O)c1[nH]c2ccc(OC)cc2c1/C=C/C(=O)c1cc(OC)c(OC)c(OC)c1 [Compound 9d, (E)-Ethyl 5-methoxy-3-(3-oxo-3-(3,4,5-trimethoxyphenyl)prop-1-en-1-yl)-1H-indole-2-carboxylate]
[1]
  Toxicity to normal PBMC: devoid of significant cytotoxic activity; also recorded: no appreciable toxicity
[2]
  Colchicine binding % ±SD (inhibition): 9.6 ± 2%
Bovine brain tubulin
  IC50: > 20 µM
U-937 cells; U-937, 24 h, 3 µM
  % G1: 52.3 ± 0.2%
  % G2-M: 21.2 ± 0.4%
  % S: 21.8 ± 0.0%
  % Sub-G1: 3.5 ± 0.3%
U-937 cells; U-937, 24 h, 10 µM
  % G1: 44.9 ± 0.6%
  % G2-M: 24.8 ± 0.3%
  % S: 22.9 ± 0.4%
  % Sub-G1: 5.6 ± 0.5%
U-937 cells; U-937, 48 h, 3 µM
  % G1: 52.9 ± 0.9%
  % G2-M: 18.3 ± 0.3%
  % S: 25.8 ± 0.5%
  % Sub-G1: 2.3 ± 0.1%
U-937 cells; U-937, 48 h, 10 µM
  % G1: 55.3 ± 0.7%
  % G2-M: 16.9 ± 0.5%
  % S: 23.1 ± 0.1%
  % Sub-G1: 4.1 ± 0.4%
U-937 cells; U-937, 72 h, 3 µM
  % G1: 53.6 ± 2.4%
  % G2-M: 15.4 ± 1.0%
  % S: 21.3 ± 1.0%
  % Sub-G1: 7.9 ± 0.2%
U-937 cells; U-937, 72 h, 10 µM
  % G1: 55.1 ± 0.0%
  % G2-M: 15.5 ± 0.8%
  % S: 22.6 ± 0.7%
  % Sub-G1: 5.4 ± 0.2%
U-937 cells; U-937 cells
  apoptosis induction (fluorescence microscopy and flow cytometry): not an apoptotic inducer
U-937/Bcl-2 cells; U-937/Bcl-2, 24 h, 0.3 µM
  % G1: 41.0 ± 1.3%
  % G2-M: 29.7 ± 0.2%
  % S: 25.1 ± 1.1%
  % Sub-G1: 2.8 ± 0.2%
U-937/Bcl-2 cells; U-937/Bcl-2, 24 h, 1 µM
  % G1: 29.3 ± 0.3 %
  % G2-M: 35.7 ± 0.2 %
  % S: 28.7 ± 0.5%
  % Sub-G1: 4.6 ± 0.3%
U-937/Bcl-2 cells; U-937/Bcl-2, 48 h, 0.3 µM
  % G1: 49.1 ± 0.4%
  % G2-M: 18.9 ± 0.7%
  % S: 26.7 ± 2.2%
  % Sub-G1: 4.4 ± 1.0%
U-937/Bcl-2 cells; U-937/Bcl-2, 48 h, 1 µM
  % G1: 33.2 ± 2.3 %
  % G2-M: 31.0 ± 2.8 %
  % S: 27.4 ± 0.2%
  % Sub-G1: 6.5 ± 0.5%
U-937/Bcl-2 cells; U-937/Bcl-2, 72 h, 0.3 µM
  % G1: 53.6 ± 1.2%
  % G2-M: 20.0 ± 0.8%
  % S: 21.8 ± 1.4%
  % Sub-G1: 3.1 ± 0.9%
U-937/Bcl-2 cells; U-937/Bcl-2, 72 h, 1 µM
  % G1: 41.6 ± 2.5 %
  % G2-M: 24.8 ± 2.6%
  % S: 24.0 ± 1.8%
  % Sub-G1: 7.5 ± 1.2%
U-937/Bcl-2 cells; U-937/Bcl-2 cells
  apoptosis induction (fluorescence microscopy and flow cytometry): only induced low apoptosis
[3]
  IC50: 3.4 ± 1 µM
